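Cultured in 96-well plates, cells were exposed to test compound for 48 hours across five concentrations. Here, GI50 denotes the concentration required for 50% inhibition of growth.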 Activity calls are given as the source filed them. Rule as the data show it: active = GI50 up to about 1.1 µM and inactive = higher.
Tests used:
Assay in all cases: inhibition of tumour cell growth, NCI panel, 48 h
[1] = system: DU-145
[2] = system: MDA-MB-435
[3] = system: BT-549
[4] = system: T47D
[5] = system: Hs-578T
[6] = system: SNB-78

Measured: GI50

CCOC(=O)c1c(-c2cccc(Cl)c2)c(C(=O)OC)c(C)c2sc(C=O)nc12
inactive: [1] 17.7 µM | [2] 19.6 µM | [3] 17.3 µM | [4] 14.8 µM | [5] 21 µM

CC1(C)N=C(N)N=C(N)N1c1ccc(CCc2ccccc2)cc1
inactive: [6] 13.6 µM
